Source: patent US11560339B2, “Micronutrient foliar solutions” (KOCH AGRONOMIC SERVICES, LLC, priority 2019, dated 2023)

What was measured:
soybean plants [1] = assay: Fe foliar application trial, SPAD measurements; assay type: in vivo; conditions: foliar at V3 stage, Fe rate 0.616 mg/pot (Table 20), harvested after 1 week
Procedure: (§1) The plants were analyzed for leaf chlorophyll concentrations using a Soil Plant Analysis Development (“SPAD”) chlorophyll meter (SPAD 502 Plus Chlorophyll Meter, from Spectrum Technologies, Inc.), which enables an in situ, nondestructive technique. That is, not sample processing was required, and the tests were carried out on live plants. Readings were taken immediately before the first foliar treatment and again at 72 hours after the second foliar treatment, and the % SPAD increase of each sample was determined.
Thirty-six days after transplantation, the plants were harvested. SPAD measurements were taken as described Example 9. Fully grown youngest trifoliate and second youngest trifoliate were selected for these SPAD measurements. A total of nine readings were taken per trifoliate (3 per leaf).
(§2) Example 11 was exactly repeated except that instead of treating the soil with an iron solution by pipetting the solution at the time of transplantation, the plants were treated foliarly at V3 stage of growth and harvested 1 week after treatment. The SPAD, biomass, and iron uptake results can be found in Tables 24-26, respectively, while the Fe(III) reductase gene expression results can be found in FIG. 14.

soybean plants [2] = assay: Fe foliar application trial, biomass measurements; assay type: in vivo; conditions: foliar at V3 stage, Fe rate 0.616 mg/pot (Table 20), harvested after 1 week
Procedure: (§3) One week after application, root and shoot masses were determined by drying the above- and below-ground biomass for 12 hours at […], then weighing each plant to the third decimal in grams.
(§4) Shoot and root biomasses were also determined, following the procedure described in Example 7.
as §2

soybean plants [3] = assay: Fe furrow application trial, SPAD measurements; assay type: in vivo; conditions: in furrow at transplanting, Fe rate 0.616 mg/pot, harvested at V3-stage
Procedure: as §1
(§5) Alkaline soil having a pH of 7.9 was made by mixing air-dried Michigan topsoil (sieved) and fine sand (50:50, v/v). Next, 0.5% w/w calcium hydroxide was added to the soil-sand mixture and mixed well. Water was then added (15% v/v), and the pots were kept in that condition for a week to allow time for alkalinity fully develop. The pH was checked, and the soil was then added to 1-liter pots. There were thirty pots total, providing five replicates for each of the six treatments described below.
(§6) Soybean seeds (FS HISOY® Soybeans) were planted in trays filled with sieved topsoil. A base fertilizer comprising water solution made with urea (N), and monoammonium phosphate (P), and potassium sulfate (K) was applied to each tray before planting. The application rate was of 50-50-50 ppm NPK. Seedlings were irrigated with DI water. The trays were kept in a plant growth chamber so that each seedling received the same environmental exposure during growth.
(§7) Sixteen days after the seeds were planted as described in Part 2 of this Example, the seedlings were transplanted to the pots prepared in Part 1 of this Example. A fertilizer solution was prepared by mixing 16.67 g of Nova PeKacid® 0-60-20 (a phosphorus and potassium fertilizer, available from ICL Specialty Fertilizers), 13.33 g of SOP fertilizer, and 11.2 L of DI water. At the time of transplant, 56.5 mL of this fertilizer solution were added to each pot, and this same fertilizer solution application was repeated weekly until harvest.
(§8) A micronutrient fertilizer solution was prepared by mixing the compounds of Table 19 in 1 L of DI water. At the time of transplanting, 10 mL of this micronutrient fertilizer solution was added to each pot. This application was not repeated during the growth cycle.
(§9) Using a pipette, an iron test solution (comparative or Option 11 solution from Example 9—see Table 20) was applied about 1 cm below the soil surface, near each plant except for the negative control. This was the only iron test solution application.
(§10) All plants received about 100 mL of DI water every other day.
Thirty-six days after transplantation, the plants were harvested. SPAD measurements were taken as described Example 9. […] A total of nine readings were taken per trifoliate (3 per leaf).

soybean plants [4] = assay: Fe foliar application trial, iron uptake by ICP; assay type: in vivo; conditions: foliar at V3 stage, Fe rate 0.616 mg/pot (Table 20), harvested after 1 week
Procedure: (§11) Iron concentrations for the various plants were also determined and compared at the time of harvest, which was at least 3 days after the last treatment application. Again, each treatment had five replicates. All samples were washed in acetic acid and rinsed before being prepared for analysis by Inductively Coupled Plasma (“ICP”) Spectroscopy. Dried samples were combusted at 450° C. and extracted with concentrated hydrochloric acid, followed by analysis using ICP.
(§12) Iron uptake was determined using ICP as described in Example 9.
as §2

soybean plants [5] = assay: Fe furrow application trial, iron uptake by ICP; assay type: in vivo; conditions: in furrow at transplanting, Fe rate 0.616 mg/pot, harvested at V3-stage
Procedure: as §11, §5, §6, §7, §8, §9, §10, §12

soybean plants [6] = assay: Fe furrow application trial, biomass measurements; assay type: in vivo; conditions: in furrow at transplanting, Fe rate 0.616 mg/pot, harvested at V3-stage
Procedure: as §3, §5, §6, §7, §8, §9, §10, §4

[7] = 75% by weight solution mixed with 25% by weight of a 50% phosphonate solution, room temperature, one week; FIG. 3
Procedure: The source of iron was iron(II) sulfate heptahydrate, the base utilized was Mg(OH)2, and the citric acid:malic acid ratio was 50:50. The ratio of metal:base:total acid was 4:4:3.
A comparative solution was prepared by mixing 75% of an iron sulfate solution with 25% of the same phosphonate, also under ambient conditions. The solutions were permitted to sit for one week to look for any unwanted precipitation (i.e., iron complexed with the phosphonate).

SMILES: O=C([O-])CN(CCN(CC(=O)[O-])CC(=O)[O-])CC(=O)[O-].[Fe+3] [FeEDTA, iron chelated with EDTA]
- Average SPAD value, second youngest trifoliate (old) (soybean plants [1]): 32.74
- Average SPAD value, youngest trifoliate (young) (soybean plants [1]): 32.06
- Root average weight/plant (dry biomass) (soybean plants [2]): 0.661 g
- Shoot average weight/plant (dry biomass) (soybean plants [2]): 2.514 g
- Average SPAD value, second youngest trifoliate (old) (soybean plants [3]): 37.94
- Average SPAD value, youngest trifoliate (young) (soybean plants [3]): 39.12
- Average Fe uptake, root (soybean plants [4]): 246.69 μg/plant
- Average Fe uptake, shoot (soybean plants [4]): 348.28 μg/plant
- Average Fe uptake, root (soybean plants [5]): 183.64 μg/plant
- Average Fe uptake, shoot (soybean plants [5]): 188.92 μg/plant
- Root average dry biomass (soybean plants [6]): 0.650 g
- Shoot average dry biomass (soybean plants [6]): 2.276 g

SMILES: O=S(=O)([O-])[O-].[Fe+2] [FeSO4, iron sulfate]
- Average SPAD value, second youngest trifoliate (old) (soybean plants [1]): 29.84
- Average SPAD value, youngest trifoliate (young) (soybean plants [1]): 33.64
- Root average weight/plant (dry biomass) (soybean plants [2]): 0.601 g
- Shoot average weight/plant (dry biomass) (soybean plants [2]): 2.199 g
- Average SPAD value, second youngest trifoliate (old) (soybean plants [3]): 30.74
- Average SPAD value, youngest trifoliate (young) (soybean plants [3]): 32.98
- extent of coordination complexing of iron (unwanted precipitation with phosphonate) [7]: which was not the case
- Average Fe uptake, root (soybean plants [4]): 273.02 μg/plant
- Average Fe uptake, shoot (soybean plants [4]): 217.88 μg/plant
- Average Fe uptake, root (soybean plants [5]): 172.17 μg/plant
- Average Fe uptake, shoot (soybean plants [5]): 116.20 μg/plant
- Root average dry biomass (soybean plants [6]): 0.540 g
- Shoot average dry biomass (soybean plants [6]): 1.992 g
